Experiments:
[1] = human, in vivo, iv; cited from earlier work

SMILES | patients experiencing bone marrow toxicity resulting in neutropenia [1] | in vivo release behaviour (fluorescence in urine)
Nc1nc(O)c2ncn(COC(CO)CO)c2n1 [Ganciclovir] | 30-50% | 
O=C([O-])c1ccccc1-c1c2ccc(=O)cc-2oc2cc([O-])ccc12.[Na+].[Na+] [sodium fluorescein, Sodium fluorescein] |  | long-term constant release
